Test results reported in publication PMC4372144 (Nature communications, 2015).

System: Type II collagenase
Assay: Peptide cleavage kinetics, modified fluorescamine assay, Type II collagenase
Type: biochemical
Settings: 1 U ml^−1 Type II collagenase, pH 7.4, 37°C, duration of the assay 9 hours, fluorescamine read-out

In the case of “GCEE-NGGSGGSN-GGGH-Methacrylate [Non-degradable peptide]”, the “protease-mediated cleavage of peptide” value was “not detectable”.
